These results are taken from US10584157B2 (priority 2015, dated 2020).

For one test, the system named is PBMC induced with SEB. The format is cell-based, human.
For another test, the system named is cell-surface B7-2. The format is binding, human.
Test [1] relates to cell-surface CD28. Type of test: binding.
Test [2] deals with SEB lethality in D-galactosamine-sensitized mice. Type of test: in vivo, BALB/c mice.
Test [3] has as its system PBMC induced with E. coli LPS. The format is cell-based, human.
The target in the next test is SEB (Staphylococcus aureus, UniProt P01552). Nature of the test: biochemical. Type of test: binding, S. aureus. Particulars: for kon: read-out: Ka (1/Ms), association rate; for koff: read-out: Kd (1/s), dissociation rate.
Sequence of SEB (P01552 28-266 limits assumed): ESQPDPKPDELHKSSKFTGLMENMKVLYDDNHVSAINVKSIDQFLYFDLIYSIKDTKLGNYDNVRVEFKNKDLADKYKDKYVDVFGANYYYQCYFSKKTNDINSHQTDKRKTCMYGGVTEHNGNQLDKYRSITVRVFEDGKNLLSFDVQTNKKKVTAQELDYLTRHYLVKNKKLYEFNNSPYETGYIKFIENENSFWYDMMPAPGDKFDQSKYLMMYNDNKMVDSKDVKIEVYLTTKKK
Another test addresses TSST-1 (Staphylococcus aureus, UniProt P06886). Nature of the test: biochemical. Particulars: for kon: read-out: Ka (1/Ms), association rate; for koff: read-out: Kd (1/s), dissociation rate. The format is binding, S. aureus.
For the next test, the system named is SMEZ. Type of test: binding, Streptococcus pyogenes.
The subject of test [4] is PBMC induced with αCD3/αCD28. The format is cell-based, human.
Test [5] deals with cell-surface CD28 (Staphylococcus aureus, UniProt P01552). Particulars: cited from earlier work.
Sequence of cell-surface CD28 (Staphylococcus aureus, UniProt P01552) (P01552 28-266 limits assumed): as above
The next test has as its system PBMC induced with αCD3. The format is cell-based, human.

Values joined by “and” are separate entries in the source; they are usually repeats but may differ in a detail not shown here. Identical values can stand only once. “Also recorded” adds a separate entry of the source. Like-named read-outs stand apart in the source and are kept apart here. Square brackets hold non-standard residues; d marks the D form. Ends that are not written are not given here. Peptide text beside a SMILES is read from it.

The term Kd denotes the equilibrium constant for the complex coming apart. A lower Kd goes with tighter binding.

Sequence of TSST-1 (P06886 41-234 limits assumed): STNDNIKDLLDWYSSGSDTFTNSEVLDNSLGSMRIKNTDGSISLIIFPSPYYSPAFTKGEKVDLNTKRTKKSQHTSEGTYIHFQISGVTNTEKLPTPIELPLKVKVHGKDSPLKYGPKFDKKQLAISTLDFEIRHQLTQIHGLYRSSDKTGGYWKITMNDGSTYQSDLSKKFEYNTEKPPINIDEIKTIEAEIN
Sequence of cell-surface B7-2 (P01552 28-266 limits assumed): as the sequence (P01552 28-266 limits assumed) above
Sequence of cell-surface CD28 (P01552 28-266 limits assumed): as above

With [dA]DSDSWTLR[dA] [D-Ala-pB2-6], in the test with PBMC induced with SEB, the “effect on SEB-mediated induction of IL-10” value is on record as “resistant”, the “inhibition of SEB-mediated induction of IFN-γ” value was “strongly inhibitory”, the “inhibition of SEB-mediated induction of IL-2” value (shortened to “inhibition … of IL-2”) is “inhibited” and the “inhibition of SEB-mediated induction of TNF-α” value (“inhibition … of TNF-α” below) is recorded as “inhibited”. Besides, the “inhibition of binding of SEB to cells expressing B7-2” value (shortened to “inhibition of binding of SEB”) in the test with cell-surface B7-2 is reported as “effectively blocked”. The “blocking of binding of SEB to cell-surface CD28” value (from here on “blocking of binding of SEB”) in the test on cell-surface CD28 [1] is “capable of blocking”. Further, the “survival of SEB challenge (mice surviving/group)” value (“survival … (mice surviving/group)” for short) in [2] (n=5) was 5/5. Moreover, in [3], the “attenuation of LPS-mediated induction of TNF-α” value is listed as “sensitive to attenuation; also recorded: reduced”.
Regarding `CC(C)C[C@H](NC(=O)[C@@H](NC(=O)[C@H](Cc1c[nH]c2ccccc12)NC(=O)[C@H](CO)NC(=O)[C@H](CC(=O)O)NC(=O)[C@H](CO)NC(=O)[C@@H](N)CC(=O)O)[C@@H](C)O)C(=O)N[C@@H](CCCNC(=N)N)C(=O)O` [pB2-6] (H-DSDSWTLR-OH; N-terminus and C-terminus assumed), on SEB, the kon worked out at 491 M⁻¹ s⁻¹ and the koff was determined as 0.0019 s⁻¹. Further, at TSST-1, the kon came to 2530 M⁻¹ s⁻¹ and the koff was 0.00304 s⁻¹. In addition, in the test on SMEZ, the “Ka (1/Ms), association rate” value is 1,590 1/Ms; binding was put at a Kd of 1790 nM; the “Kd (1/s), dissociation rate” value was 0.00286 s⁻¹. In addition, in the test with PBMC induced with SEB, the “inhibition of SEB-mediated induction of IFN-γ” value is “only partially”, the “inhibition … of IL-2” value was “only partially” and the “inhibition … of TNF-α” value is “only partially”.
Turning to [dA]MLKIQAY[dA] [D-Ala-pB2-5], the “inhibition of SEB-mediated induction of IFN-γ” value in the test on PBMC induced with SEB is “failed to inhibit”.
For `CSCC[C@H](NC(=O)[C@H](Cc1ccc(O)cc1)NC(=O)[C@H](CCCCN)NC(=O)[C@H](CO)NC(=O)[C@H](Cc1c[nH]cn1)NC(=O)[C@@H](NC(=O)[C@H](CO)NC(=O)[C@H](CC(=O)O)NC(=O)[C@H](Cc1ccccc1)NC(=O)[C@H](CCCCN)NC(=O)[C@@H](N)CCC(=O)O)C(C)C)C(=O)O` [pB2-4] (H-EKFDSVHSKYM-OH; N-terminus and C-terminus assumed), at SEB, the kon came to 413 M⁻¹ s⁻¹ and the koff came out at 0.000958 s⁻¹. Moreover, at TSST-1, the kon is 4080 M⁻¹ s⁻¹ and the koff was found to be 0.0277 s⁻¹. In the test with SMEZ, the “Ka (1/Ms), association rate” value is on record as 3,020 1/Ms and the “Kd (1/s), dissociation rate” value is 0.00293 s⁻¹. In the test on PBMC induced with SEB, the “inhibition of SEB-mediated induction of IFN-γ” value is reported as “only partially”, the “inhibition … of IL-2” value is on record as “only partially” and the “inhibition … of TNF-α” value is on record as “only partially”.
As to [dA]HHKKPTGMIR[dA] [D-Ala-pB2-3], the “inhibition of SEB-mediated induction of IFN-γ” value with PBMC induced with SEB was “failed to inhibit”.
As for MGRTSFDSDS [pB2-7], in the test with PBMC induced with SEB, the “inhibition of SEB-mediated induction of IFN-γ” value is “inhibited”, the “inhibition … of IL-2” value was “inhibited”, the “inhibition of SEB-mediated induction of IL-10” value was “did not inhibit” and the “inhibition … of TNF-α” value is “inhibited”. In [4], the “attenuation of IFN-γ expression induced by αCD3/αCD28” value is given as “significant attenuation” and the “attenuation of TNF-α expression induced by αCD3/αCD28” value was “significant attenuation”.
In the case of SPMLVAYD [p2TA, reference compound], the “inhibition of binding of SEB” value in the test with cell-surface B7-2 was “equally inhibited”. Also, the “blocking of binding of SEB” value with cell-surface CD28 [1] is recorded as “capable of blocking”; on cell-surface CD28 [5], “abrogated”.
On to HVKGKHLCP [p1TA, reference compound], for which the “inhibition of binding of SEB” value in the test on cell-surface B7-2 is “equally inhibited”. Also, the figures for the “blocking of binding of SEB” value with cell-surface CD28 [1] and on cell-surface CD28 [5] were “capable of blocking” and “abrogated”, respectively.
With [dA]MGRTSFDSDS[dA] [D-Ala-pB2-7], in the test on cell-surface B7-2, the “inhibition of binding of SEB” value was “likewise blocked”. Moreover, the “blocking of binding of SEB” value in the test with cell-surface CD28 [1] is reported as “capable of blocking”. For the same molecule, in test [2] (n=6), the “survival … (mice surviving/group)” value was “protected and 6/6”. In addition, in the test with PBMC induced with αCD3, the “induction of an IFN-γ response by the peptide alone” value is given as “at neither concentration” and the “inhibition of induction of IFN-γ by αCD3” value is given as “did not inhibit”. Moreover, in test [3], the “attenuation of LPS-mediated induction of TNF-α” value is on record as “reduced”.
Regarding [dA]DLPCQFANSQN[dA] [D-Ala-pB2-2], in the test with PBMC induced with SEB, the “inhibition of SEB-mediated induction of IFN-γ” value is given as “failed to inhibit”. Besides, the “inhibition of binding of SEB” value in the test on cell-surface B7-2 is recorded as “did not inhibit binding”.
In the case of [dA]EKFDSVHSKYM[dA] [D-Ala-pB2-4], in the test on PBMC induced with SEB, the “effect on SEB-mediated induction of IL-10” value is “resistant”, the “inhibition of SEB-mediated induction of IFN-γ” value is on record as “strongly inhibitory”, the “inhibition … of IL-2” value is recorded as “inhibited” and the “inhibition … of TNF-α” value is on record as “inhibited”. For the same molecule, the “inhibition of binding of SEB” value with cell-surface B7-2 is reported as “effectively blocked”. Besides, the “blocking of binding of SEB” value in the test with cell-surface CD28 [1] is reported as “capable of blocking”. In [2] (n=5), the “survival … (mice surviving/group)” value was 4/5. Further, in test [4], the “inhibition of CD28 signaling, IFN-γ induced by αCD3/αCD28” value was “inhibition” and the “inhibition of CD28 signaling, TNF-α induced by αCD3/αCD28” value is listed as “inhibition”. The “attenuation of LPS-mediated induction of TNF-α” value in test [3] is reported as “sensitive to attenuation; also recorded: reduced”.
